ChEMBL document CHEMBL1201862, “PubChem BioAssay data set” (2004)
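Following 48 hours of exposure in 96-well plates, responses at five concentrations were used to interpolate endpoints linearly. The concentration for 50% growth inhibition is given as GI50.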 Active and inactive are the calls of the source. Cut-off read from the data, not from the text of the source: active = GI50 up to about 1.1 µM and inactive = higher.

Assays:
Test in all cases: NCI tumour cell line growth inhibition, 48 h
A549 = tested on: A549
HCC 2998 = tested on: HCC 2998
HCT-116 = tested on: HCT-116
HOP-62 = tested on: HOP-62
HOP-92 = tested on: HOP-92
HT-29 = tested on: HT-29
IGROV-1 = tested on: IGROV-1
K562 = tested on: K562
M14 = tested on: M14
NCI-H226 = tested on: NCI-H226
NCI-H23 = tested on: NCI-H23
NCI/ADR-RES = tested on: NCI/ADR-RES
OVCAR-8 = tested on: OVCAR-8
RPMI-8226 = tested on: RPMI-8226
SK-MEL-2 = tested on: SK-MEL-2
SNB-19 = tested on: SNB-19
SW-620 = tested on: SW-620
U-251 = tested on: U-251
Malme-3M = tested on: Malme-3M

With Cc1nc(N)sc1C(=O)Nc1nc[nH]n1 the GI50 (A549) was > 100 µM (inactive), the GI50 (HCC 2998) was > 100 µM (inactive) and the GI50 (HCT-116) was > 100 µM (inactive). The GI50 (HOP-62) was > 100 µM (inactive), the GI50 (HOP-92) was > 100 µM (inactive) and the GI50 (HT-29) was > 100 µM (inactive). For the same compound, the GI50 (IGROV-1) was > 100 µM (inactive), the GI50 (K562) was > 100 µM (inactive) and the GI50 (M14) was > 100 µM (inactive). For the same compound, the GI50 (NCI-H226) was > 100 µM (inactive), the GI50 (NCI-H23) was > 100 µM (inactive) and the GI50 (NCI/ADR-RES) was > 100 µM (inactive). For the same compound, the GI50 (OVCAR-8) was > 100 µM (inactive), the GI50 (RPMI-8226) was > 100 µM (inactive) and the GI50 (SK-MEL-2) was > 100 µM (inactive). For the same compound, the GI50 (SNB-19) was > 100 µM (inactive), the GI50 (SW-620) was > 100 µM (inactive) and the GI50 (U-251) was > 100 µM (inactive).
For COC1=CC(=O)c2c(cc(COP(=O)(N(C)CCBr)N(C)CCBr)n2C)C1=O, the GI50 (A549) was 0.185 µM (active), the GI50 (HCC 2998) was 0.494 µM (active) and the GI50 (HCT-116) was 0.0542 µM (active). The GI50 (HOP-62) was < 0.0322 µM (active), the GI50 (HOP-92) was 0.69 µM (active) and the GI50 (HT-29) was 0.0413 µM (active). For the same compound, the GI50 (IGROV-1) was 2.31 µM (inactive), the GI50 (K562) was 1.52 µM (inactive) and the GI50 (M14) was 0.614 µM (active). For the same compound, the GI50 (Malme-3M) was 0.906 µM (active), the GI50 (NCI-H23) was < 0.0212 µM (active) and the GI50 (NCI/ADR-RES) was 1.24 µM (inactive). For the same compound, the GI50 (OVCAR-8) was 0.241 µM (active), the GI50 (RPMI-8226) was 0.385 µM (active) and the GI50 (SK-MEL-2) was 1.89 µM (inactive). For the same compound, the GI50 (SNB-19) was 0.798 µM (active), the GI50 (SW-620) was 0.187 µM (active) and the GI50 (U-251) was 0.0419 µM (active).
With COc1cc(OC2OC(CO)C(O)C(O)C2O)c2c(c1)O[C@@H]1[C@H](O)Oc3cc(OC)c(OC)cc3[C@]1(O)C2=O (some centres not stated) the GI50 (A549) was > 25 µM (inactive), the GI50 (HCC 2998) was > 25 µM (inactive) and the GI50 (HCT-116) was > 25 µM (inactive). For the same compound, the GI50 (HOP-62) was > 25 µM (inactive), the GI50 (HOP-92) was > 25 µM (inactive) and the GI50 (HT-29) was > 25 µM (inactive). For the same compound, the GI50 (IGROV-1) was > 25 µM (inactive), the GI50 (K562) was > 25 µM (inactive) and the GI50 (M14) was > 25 µM (inactive). The GI50 (NCI-H226) was > 25 µM (inactive), the GI50 (NCI-H23) was > 25 µM (inactive) and the GI50 (NCI/ADR-RES) was > 25 µM (inactive). For the same compound, the GI50 (OVCAR-8) was > 25 µM (inactive), the GI50 (RPMI-8226) was > 25 µM (inactive) and the GI50 (SK-MEL-2) was > 25 µM (inactive). The GI50 (SNB-19) was > 25 µM (inactive), the GI50 (SW-620) was > 25 µM (inactive) and the GI50 (U-251) was > 25 µM (inactive).
In the case of O=c1[nH]c(=O)n(COCc2ccccc2)c2ccc([N+](=O)[O-])cc12, the GI50 (A549) is reported as > 100 µM (inactive), the GI50 (HCC 2998) is reported as > 100 µM (inactive) and the GI50 (HCT-116) is reported as > 100 µM (inactive). For the same compound, the GI50 (HOP-92) was > 100 µM (inactive), the GI50 (HT-29) was > 100 µM (inactive) and the GI50 (IGROV-1) was > 100 µM (inactive). For the same compound, the GI50 (K562) was > 100 µM (inactive), the GI50 (M14) was > 100 µM (inactive) and the GI50 (NCI-H226) was > 100 µM (inactive). The GI50 (NCI/ADR-RES) was 4.85 µM (inactive), the GI50 (OVCAR-8) was 35.2 µM (inactive) and the GI50 (SK-MEL-2) was > 100 µM (inactive). The GI50 (SW-620) was > 100 µM (inactive) and the GI50 (U-251) was > 100 µM (inactive).
N/N=C1/CCCc2nonc21 was tested, and the GI50 (A549) was > 100 µM (inactive), the GI50 (HCC 2998) was > 100 µM (inactive) and the GI50 (HCT-116) was > 100 µM (inactive). For the same compound, the GI50 (HOP-62) was > 100 µM (inactive), the GI50 (HOP-92) was > 100 µM (inactive) and the GI50 (HT-29) was > 100 µM (inactive). The GI50 (IGROV-1) was > 100 µM (inactive), the GI50 (K562) was > 100 µM (inactive) and the GI50 (M14) was > 100 µM (inactive). The GI50 (Malme-3M) was > 100 µM (inactive), the GI50 (NCI-H23) was > 100 µM (inactive) and the GI50 (NCI/ADR-RES) was > 100 µM (inactive). The GI50 (OVCAR-8) was > 100 µM (inactive), the GI50 (RPMI-8226) was > 100 µM (inactive) and the GI50 (SK-MEL-2) was > 100 µM (inactive). For the same compound, the GI50 (SW-620) was > 100 µM (inactive) and the GI50 (U-251) was > 100 µM (inactive).
In the case of CCOC(=O)N(C)CCC1CC=CC(=O)C1c1cccc(OC)c1OC (configuration not stated), the GI50 (A549) is reported as 25.4 µM (inactive), the GI50 (HCC 2998) is reported as 13.1 µM (inactive) and the GI50 (HCT-116) is reported as 14.4 µM (inactive). The GI50 (HOP-62) was 24.4 µM (inactive), the GI50 (HOP-92) was 65.3 µM (inactive) and the GI50 (HT-29) was 13.8 µM (inactive). For the same compound, the GI50 (IGROV-1) was 36.1 µM (inactive), the GI50 (K562) was 23.2 µM (inactive) and the GI50 (M14) was 19.5 µM (inactive). The GI50 (Malme-3M) was 22.9 µM (inactive), the GI50 (NCI-H23) was 14 µM (inactive) and the GI50 (NCI/ADR-RES) was 19.8 µM (inactive). The GI50 (OVCAR-8) was 21.3 µM (inactive), the GI50 (RPMI-8226) was 14.2 µM (inactive) and the GI50 (SK-MEL-2) was 13.7 µM (inactive). The GI50 (SNB-19) was 23.3 µM (inactive), the GI50 (SW-620) was 20.9 µM (inactive) and the GI50 (U-251) was 16.7 µM (inactive).
COc1cccc(-c2ccc3c4c2O[C@H]2C(=O)CC[C@@]5(O)[C@@H](C3)N(CC3CC3)CC[C@]425)c1 was tested, and the GI50 (A549) was 18.2 µM (inactive), the GI50 (HCT-116) was 17.5 µM (inactive) and the GI50 (HOP-62) was 19.5 µM (inactive). The GI50 (HOP-92) was 15.3 µM (inactive), the GI50 (HT-29) was 11.6 µM (inactive) and the GI50 (IGROV-1) was 21.8 µM (inactive). The GI50 (K562) was 13.5 µM (inactive), the GI50 (M14) was 14.5 µM (inactive) and the GI50 (Malme-3M) was 20.9 µM (inactive). For the same compound, the GI50 (NCI-H226) was 11.6 µM (inactive), the GI50 (NCI-H23) was 24.9 µM (inactive) and the GI50 (NCI/ADR-RES) was 19.4 µM (inactive). The GI50 (OVCAR-8) was 18.5 µM (inactive), the GI50 (RPMI-8226) was 12.6 µM (inactive) and the GI50 (SK-MEL-2) was 19 µM (inactive). For the same compound, the GI50 (SNB-19) was 20.7 µM (inactive), the GI50 (SW-620) was 12.2 µM (inactive) and the GI50 (U-251) was 16.2 µM (inactive).
Fc1ccccc1C1SCC2=Nc3ccccc3CN21 (configuration not stated) was tested, and the GI50 (A549) was > 100 µM (inactive), the GI50 (HCC 2998) was > 100 µM (inactive) and the GI50 (HCT-116) was 48.5 µM (inactive). For the same compound, the GI50 (HOP-62) was 67.1 µM (inactive), the GI50 (HOP-92) was > 100 µM (inactive) and the GI50 (HT-29) was > 100 µM (inactive). For the same compound, the GI50 (K562) was > 100 µM (inactive), the GI50 (M14) was > 100 µM (inactive) and the GI50 (NCI-H23) was > 100 µM (inactive). For the same compound, the GI50 (NCI/ADR-RES) was > 100 µM (inactive), the GI50 (OVCAR-8) was > 100 µM (inactive) and the GI50 (RPMI-8226) was > 100 µM (inactive). The GI50 (SK-MEL-2) was 43.6 µM (inactive), the GI50 (SNB-19) was > 100 µM (inactive) and the GI50 (SW-620) was > 100 µM (inactive). The GI50 (U-251) was > 100 µM (inactive).
